Assay [1] deals with T1, system Xc^− (Homo sapiens, UniProt Q9UPY5).
T1 sequence (Q9UPY5 1-501): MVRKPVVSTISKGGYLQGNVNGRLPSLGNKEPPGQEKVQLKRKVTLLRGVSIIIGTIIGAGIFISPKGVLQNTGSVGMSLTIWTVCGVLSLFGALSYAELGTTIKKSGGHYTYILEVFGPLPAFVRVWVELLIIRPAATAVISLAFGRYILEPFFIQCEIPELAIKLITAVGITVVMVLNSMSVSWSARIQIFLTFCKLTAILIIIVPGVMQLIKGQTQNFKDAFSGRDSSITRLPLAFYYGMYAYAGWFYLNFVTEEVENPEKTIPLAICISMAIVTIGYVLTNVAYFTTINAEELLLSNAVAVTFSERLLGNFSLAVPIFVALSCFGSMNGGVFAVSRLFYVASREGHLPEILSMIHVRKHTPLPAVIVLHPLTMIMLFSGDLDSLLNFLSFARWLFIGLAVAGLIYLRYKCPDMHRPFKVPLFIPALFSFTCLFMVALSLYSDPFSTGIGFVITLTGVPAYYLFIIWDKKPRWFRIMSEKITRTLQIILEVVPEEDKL
T1 sequence (P08195 1-529 partner): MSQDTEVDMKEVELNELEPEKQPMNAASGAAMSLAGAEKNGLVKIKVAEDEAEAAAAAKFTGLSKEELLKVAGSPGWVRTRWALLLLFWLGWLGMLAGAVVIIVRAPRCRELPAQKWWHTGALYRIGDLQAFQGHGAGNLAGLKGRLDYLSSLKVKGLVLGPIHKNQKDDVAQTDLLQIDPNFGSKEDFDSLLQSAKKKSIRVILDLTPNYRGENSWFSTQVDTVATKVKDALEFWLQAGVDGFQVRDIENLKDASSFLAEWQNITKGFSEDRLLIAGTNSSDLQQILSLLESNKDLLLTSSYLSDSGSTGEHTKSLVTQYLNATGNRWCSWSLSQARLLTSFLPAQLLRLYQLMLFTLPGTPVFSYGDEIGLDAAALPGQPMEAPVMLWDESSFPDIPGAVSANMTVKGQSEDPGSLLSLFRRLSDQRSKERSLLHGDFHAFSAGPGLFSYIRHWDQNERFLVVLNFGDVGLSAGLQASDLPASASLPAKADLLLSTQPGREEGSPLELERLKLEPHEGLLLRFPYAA
Kind of assay: [^14C]L-Cystine uptake assay. In kind it is cell-based. Further details: endogenous in cells; host or cells: H4 cells. The conditions noted are these: H4 cells, sodium-free HEPES buffer, 0.5 μM L-[14C]Cystine and 4.5 μM L-Cystine, 1 hour at 37° C.; read-out: pIC50 [^14C] L-Cystine uptake assay (converted). In short, it runs like this: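 Compound effect is given as pIC50, taken between controls of 1% DMSO and 50 μM Erastin. Human H4 cells were pretreated 15 min with compound in sodium-free buffer, then took up 0.5 μM [14C]cystine with 4.5 μM cold cystine for 1 hour at 37° C, read by scintillation proximity counting.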

Assay [2] has as its target T1, system Xc^−. Nature of the assay: Cystine-induced glutamate release assay. The class given is cell-based. On the set-up: endogenous in cells; host or cells: H4 cells. The conditions noted are these: H4 cells, sodium-free HEPES buffer, 50 μM L-Cystine, 2 hours, Amplex Red glutamate readout; read-out: pIC50 Cystine-induced glutamate release assay (converted). The method, boiled down:
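IC50 (reported as pIC50) normalized to DMSO 1% and Erastin 50 μM controls, from Amplex Red fluorescence of glutamate exported into supernatant. H4 cells were washed into sodium-free buffer to exclude EAAT transport, then given compound with 50 μM L-cystine for 2 h in the incubator.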

Turning to `Cc1cc2c(cc1C)N(CC(=O)Nc1ccc(C(F)(F)F)cc1)C(=O)Cc1cncnc1-2` [#9, 2-(9,10-dimethyl-6-oxo-5H-pyrimido[5,4-d][1]benzazepin-7-yl)-N-[4-(trifluoromethyl)phenyl]acetamide], the figures for the IC50 at system Xc^− [1] and on system Xc^− [2] were 39.8 to 100 nM and 100 to 501 nM, respectively.
Turning to `Cc1cc2c(cc1C)N(CC(=O)Nc1ccc(C(F)(F)F)cc1)C(=O)Cc1ccc(Cl)nc1-2` [#10, 2-(2-chloro-9,10-dimethyl-6-oxo-5H-pyrido[3,2-d][1]benzazepin-7-yl)-N-[4-(trifluoromethyl)phenyl]acetamide], the IC50 on system Xc^− [1] and on system Xc^− [2] was 100 to 501 nM in each case.
Regarding `O=C(CN1C(=O)Cc2ccncc2-c2cnc(Cl)cc21)Nc1ccc(C(F)(F)F)cc1` [#11, 2-(5-chloro-9-oxo-4,8,14-triazatricyclo[9.4.0.0^2,7]pentadeca-1(11),2(7),3,5,12,14-hexaen-8-yl)-N-[4-(trifluoromethyl)phenyl]acetamide], the IC50 at system Xc^− [1] and at system Xc^− [2] was 100 to 501 nM throughout.
For the compound `Cc1cc2c(cn1)-c1ncccc1CC(=O)N2CC(=O)Nc1ccc(C(F)(F)F)cc1` [#12, 2-(13-methyl-9-oxo-3,10,14-triazatricyclo[9.4.0.0^2,7]pentadeca-1(11),2(7),3,5,12,14-hexaen-10-yl)-N-[4-(trifluoromethyl)phenyl]acetamide], the IC50 at system Xc^− [1] and at system Xc^− [2] was 100 to 501 nM throughout.
`O=C(CN1C(=O)Cc2ccccc2-c2cnc(Cl)cc21)Nc1ccc(C(F)(F)F)cc1` [#13, 2-(3-chloro-6-oxo-7H-pyrido[4,3-d][3]benzazepin-5-yl)-N-[4-(trifluoromethyl)phenyl]acetamide]: the results for the IC50 on system Xc^− [1] and at system Xc^− [2] were 39.8 to 100 nM and 100 to 501 nM, respectively.
Take `Cc1cc2c(cn1)-c1ccccc1CC(=O)N2CC(=O)Nc1ccc(C(F)(F)F)cc1` [#14, 2-(3-methyl-6-oxo-7H-pyrido[4,3-d][3]benzazepin-5-yl)-N-[4-(trifluoromethyl)-phenyl]acetamide]: the IC50 on system Xc^− [1] is under 15.8 nM; on system Xc^− [2], 100 to 501 nM.
As to `Cc1cc2c(nc1C)-c1ccccc1CC(=O)N2CC(=O)Nc1ccc(C(F)(F)F)cc1` [#15, 2-(2,3-dimethyl-6-oxo-7H-pyrido[3,2-d][3]benzazepin-5-yl)-N-[4-(trifluoro-methyl)phenyl] acetamide], the IC50 on system Xc^− [1] is 15.8 to 39.8 nM; on system Xc^− [2], 100 to 501 nM.
Regarding `O=C(CN1C(=O)Cc2ccccc2-c2ncc(F)cc21)Nc1ccc(C(F)(F)F)cc1` [#16, 2-(3-fluoro-6-oxo-7H-pyrido[3,2-d] [3]benzazepin-5-yl)-N-[4-(trifluoro-methyl)phenyl] acetamide], the IC50 on system Xc^− [1] and at system Xc^− [2] was 100 to 501 nM each time.
For the compound `O=C(CN1C(=O)Cc2ccccc2-c2cnccc21)Nc1ccc(C(F)(F)F)cc1` [#17, 2-(6-oxo-7H-pyrido [4,3-d][3]benzazepin-5-yl)-N-[4-(trifluoro-methyl)phenyl] acetamide], the IC50 on system Xc^− [1] and at system Xc^− [2] was 100 to 501 nM each time.
On to `Cc1ccc(NC(=O)CN2C(=O)Cc3cccnc3-c3cnc(Cl)cc32)cc1Cl` [#18, N-(3-chloro-4-methyl-phenyl)-2-(13-chloro-9-oxo-3,10,14-triazatricyclo[9.4.0.0^2,7]pentadeca-1(11),2(7),3,5,12,14-hexaen-10-yl)acetamide], for which the IC50 on system Xc^− [1] and at system Xc^− [2] was 100 to 501 nM each time.
For the compound `O=C(CN1C(=O)Cc2cccnc2-c2cnc(Cl)cc21)Nc1ccc(Br)c(Cl)c1` [#19, N-(4-bromo-3-chloro-phenyl)-2-(13-chloro-9-oxo-3,10,14-triazatricyclo[9.4.0.0^2,7]pentadeca-1(11),2(7),3,5,12,14-hexaen-10-yl)acetamide], the IC50 at system Xc^− [1] and at system Xc^− [2] was 100 to 501 nM in each case.
`Cc1cc2c(cn1)-c1cc(C)c(C)cc1N(CC(=O)Nc1ccc(C(F)(F)F)cc1)C(=O)C2` [#21, N-[4-(trifluoromethyl)phenyl]-2-(3,9,10-trimethyl-6-oxo-5H-pyrido[4,3-d][1]benzazepin-7-yl)acetamide]: the IC50 at system Xc^− [1] was 39.8 to 100 nM; on system Xc^− [2] it was 100 to 501 nM.
Regarding `Cc1cc2c(cc1C)N(CC(=O)Nc1ccc(C(F)(F)F)cc1)C(=O)Cc1cccnc1-2` [#22, 2-(9,10-dimethyl-6-oxo-5H-pyrido[3,2-d][1]benzazepin-7-yl)-N-[4-(trifluoromethyl)phenyl]acetamide], the results for the IC50 at system Xc^− [1] and on system Xc^− [2] were 39.8 to 100 nM and 100 to 501 nM, respectively.
The corresponding values for `Cc1cc2c(cc1C)N(CC(=O)Nc1ccc(C(F)(F)F)cc1)C(=O)Cc1ncccc1-2` [#23, 2-(9,10-dimethyl-6-oxo-5H-pyrido[2,3-d][1]benzazepin-7-yl)-N-[4-(trifluoromethyl)phenyl]acetamide] are 15.8 to 39.8 nM and 39.8 to 100 nM.
Consider `Cc1cc2c(cc1C)N(CC(=O)Nc1ccc(C(F)(F)F)cc1)C(=O)Cc1ccncc1-2` [#24, 2-(9,10-dimethyl-6-oxo-5H-pyrido[4,3-d][1]benzazepin-7-yl)-N-[4-(trifluoromethyl)phenyl]acetamide], for which the results for the IC50 at system Xc^− [1] and on system Xc^− [2] were 15.8 to 39.8 nM and 100 to 501 nM, respectively.
For the compound `O=C(CN1C(=O)Cc2ncccc2-c2cnc(Cl)cc21)Nc1ccc(C(F)(F)F)cc1` [#25, 2-(5-chloro-9-oxo-4,8,12-triazatricyclo[9.4.0.0^2,7]pentadeca-1(11),2(7),3,5,12,14-hexaen-8-yl)-N-[4-(trifluoromethyl)phenyl]acetamide], the IC50 at system Xc^− [1] and on system Xc^− [2] was 100 to 501 nM throughout.
Regarding `O=C(CN1C(=O)Cc2sccc2-c2cnc(Cl)cc21)Nc1ccc(C(F)(F)F)cc1` [#26, 2-(12-chloro-8-oxo-5-thia-9,13-diazatricyclo[8.4.0.0^2,6]tetradeca-1(10),2(6),3,11,13-pentaen-9-yl)-N-[4-(trifluoromethyl)phenyl]acetamide], the IC50 at system Xc^− [1] was 39.8 to 100 nM; on system Xc^− [2], 100 to 501 nM.
For the compound `Cc1cc2c(c(C)n1)-c1ccccc1CC(=O)N2CC(=O)Nc1ccc(C(F)(F)F)cc1` [#27, 2-(1,3-dimethyl-6-oxo-7H-pyrido[4,3-d][3]benzazepin-5-yl)-N-[4-(trifluoromethyl)phenyl]acetamide], the IC50 at system Xc^− [1] was under 15.8 nM; on system Xc^− [2] it was 15.8 to 39.8 nM.
For `Cc1nccc2c1-c1ccccc1CC(=O)N2CC(=O)Nc1ccc(C(F)(F)F)cc1` [#28, 2-(1-methyl-6-oxo-7H-pyrido[4,3-d] [3]benzazepin-5-yl)-N-[4-(trifluoro-methyl)phenyl] acetamide], the IC50 on system Xc^− [1] and at system Xc^− [2] was 39.8 to 100 nM each time.
Regarding `Cc1cc2c(cn1)N(CC(=O)Nc1ccc(C(F)(F)F)cc1)C(=O)Cc1ccccc1-2` [#29, 2-(2-methyl-6-oxo-7H-pyrido[3,4-d] [3]benzazepin-5-yl)-N-[4-(trifluoro-methyl)phenyl] acetamide], the IC50 on system Xc^− [1] and at system Xc^− [2] was 100 to 501 nM each time.
For the compound `Cc1cc2c(cn1)-c1cc(Cl)ccc1CC(=O)N2CC(=O)Nc1ccc(C(F)(F)F)cc1` [#30, 2-(10-chloro-3-methyl-6-oxo-7H-pyrido[4,3-d][3]benzazepin-5-yl)-N-[4-(trifluoro-methyl)phenyl] acetamide], the IC50 on system Xc^− [1] is under 15.8 nM; on system Xc^− [2], 100 to 501 nM.
The corresponding values for `Cc1cc2c(cn1)-c1cccc(Cl)c1CC(=O)N2CC(=O)Nc1ccc(C(F)(F)F)cc1` [#31, 2-(8-chloro-3-meth-yl-6-oxo-7H-pyrido [4,3-d][3]benzaze-pin-5-yl)-N-[4-(trifluoromethyl)-phenyl]acetamide] are 15.8 to 39.8 nM and 100 to 501 nM.
With `Cc1cc2c(cn1)-c1c(Cl)cccc1CC(=O)N2CC(=O)Nc1ccc(C(F)(F)F)cc1` [#32, 2-(11-chloro-3-methyl-6-oxo-7H-pyrido[4,3-d][3]benzazepin-5-yl)-N-[4-(trifluoro-methyl)phenyl] acetamide], the IC50 at system Xc^− [1] and on system Xc^− [2] was 100 to 501 nM in each case.

Source of the values: patent publication US20260217708A1, “FUSED BENZAZEPINE DERIVATIVES FOR USE IN THE TREATMENT OF CANCER AND EPILEPSY” (UCB BIOPHARMA SRL, priority 2023, published 2026).
